Results on 3 compounds are retold here after ChEMBL document CHEMBL1817658, “Synthesis and biological activity of optically active phenylbutenoid dimers” (J Nat Prod, 2011).

The series has as its target ATP-dependent translocase ABCB1 (Homo sapiens, UniProt P08183). The series can be described thus: Inhibition of P-gp in human MCF7/ADR cells assessed as potentiation of daunomycin-induced cytotoxicity at 50 microM incubated for 2 hrs by SRB assay. The following applies: nci/adr-res. In kind it is cell-based. (The SRB assay estimates cell density from bound dye.)

ATP-dependent translocase ABCB1, sequence (P08183 whole entry): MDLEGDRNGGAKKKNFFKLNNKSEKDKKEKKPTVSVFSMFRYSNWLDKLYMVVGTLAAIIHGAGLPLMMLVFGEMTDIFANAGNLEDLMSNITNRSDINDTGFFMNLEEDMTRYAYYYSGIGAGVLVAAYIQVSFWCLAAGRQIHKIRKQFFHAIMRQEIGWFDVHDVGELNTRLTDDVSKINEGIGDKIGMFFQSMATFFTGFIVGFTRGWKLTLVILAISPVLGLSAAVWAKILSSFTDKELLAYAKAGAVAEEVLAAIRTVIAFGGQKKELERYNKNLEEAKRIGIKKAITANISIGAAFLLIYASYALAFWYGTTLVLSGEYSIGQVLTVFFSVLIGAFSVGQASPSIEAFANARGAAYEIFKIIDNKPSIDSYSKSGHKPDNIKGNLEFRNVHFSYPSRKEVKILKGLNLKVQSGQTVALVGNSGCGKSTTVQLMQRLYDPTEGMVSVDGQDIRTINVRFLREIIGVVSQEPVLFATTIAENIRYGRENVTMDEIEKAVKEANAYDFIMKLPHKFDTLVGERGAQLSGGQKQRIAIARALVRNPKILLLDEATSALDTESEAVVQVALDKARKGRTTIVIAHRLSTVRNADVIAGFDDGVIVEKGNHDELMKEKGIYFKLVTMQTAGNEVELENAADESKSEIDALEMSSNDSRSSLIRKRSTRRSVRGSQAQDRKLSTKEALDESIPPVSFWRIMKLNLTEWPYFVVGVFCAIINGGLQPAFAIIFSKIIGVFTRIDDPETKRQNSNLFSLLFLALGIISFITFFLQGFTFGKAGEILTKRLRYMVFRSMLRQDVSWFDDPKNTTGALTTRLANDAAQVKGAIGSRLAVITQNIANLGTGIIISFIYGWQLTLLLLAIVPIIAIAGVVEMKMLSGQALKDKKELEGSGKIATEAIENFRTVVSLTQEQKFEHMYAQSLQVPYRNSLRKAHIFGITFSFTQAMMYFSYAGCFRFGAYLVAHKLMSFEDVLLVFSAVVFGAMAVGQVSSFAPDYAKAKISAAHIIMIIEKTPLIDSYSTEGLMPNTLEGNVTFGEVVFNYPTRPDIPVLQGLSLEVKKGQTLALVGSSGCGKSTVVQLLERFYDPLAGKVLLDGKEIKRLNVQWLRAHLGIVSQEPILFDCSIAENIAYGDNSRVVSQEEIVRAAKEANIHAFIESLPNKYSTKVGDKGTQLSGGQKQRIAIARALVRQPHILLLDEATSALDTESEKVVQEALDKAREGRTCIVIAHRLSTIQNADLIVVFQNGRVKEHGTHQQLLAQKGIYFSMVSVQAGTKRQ

In the case of `COc1ccc(/C=C\[C@H]2CCC=C[C@@H]2c2ccc(OC)c(OC)c2)cc1OC`, the “inhibition (INH)” value was “Active”.
Turning to `COc1ccc(/C=C/[C@H]2CCC=C[C@@H]2c2ccc(OC)c(OC)c2)cc1OC`, the “inhibition (INH)” value was “Active”.
As for `COc1ccc(/C=C/[C@@H]2CCC=C[C@H]2c2ccc(OC)c(OC)c2)cc1OC`, the “inhibition (INH)” value was “Active”.
